From PMC6792352, “Limited Chemical Structural Diversity Found to Modulate Thyroid Hormone Receptor in the Tox21 Chemical Library” (Environmental Health Perspectives, 2019)
Counter-ions that a name gives are not always drawn.

Assay: in vitro
Settings: rat, gh3-tre-luc cells, AC50 (uM) modified / 1000

`CSc1cnccn1` [Pyrazinyl methyl sulfide] and `CCc1nccnc1C` [3-Ethyl-2-methylpyrazine] cannot be ordered by CC50 at 24 h: greater than 90 µM for the first, greater than 90 µM for the second.

`CCCCOCC(C)O` (centres unmarked) [1-Butoxy-2-propanol] and `CCCCC(CC)COCCO` (centres unmarked) [2-(2-Ethylhexyloxy)ethanol] cannot be ordered by CC50 at 24 h: greater than 90 µM for the first, greater than 90 µM for the second.

First: CCCCOC(=O)C(C)Oc1ccc(Oc2ccc(C(F)(F)F)cn2)cc1 (centres unmarked) [Fluazifop-butyl]
Second: Cc1cc(SCc2sc(-c3ccc(C(F)(F)F)c(F)c3)nc2C)ccc1OCC(=O)O [{4-[({2-[3-Fluoro-4-(trifluoromethyl)phenyl]-4-methyl-1,3-thiazol-5-yl}methyl)sulfanyl]-2-methylphenoxy}acetic acid]
The CC50 at 24 h of the first is higher: greater than 90 µM for the first, 64.8 µM for the second.

`NC(=O)c1ncn([C@@H]2O[C@H](CO)[C@@H](O)[C@H]2O)c1O` [Mizoribine] and `CN[C@H]1C[C@@H](N)[C@H](O)[C@@H](O[C@@H]2O[C@H](CO)[C@H](O)[C@@H]3OC4(O[C@H]23)O[C@H]([C@@H](N)CO)[C@H](O)[C@H](O)[C@H]4O)[C@@H]1O` (some centres unmarked) [Hygromycin B] cannot be ordered by CC50 at 24 h: greater than 50 µM for the first, greater than 50 µM for the second.

`N#CCc1ccccc1[N+](=O)[O-]` [(2-Nitrophenyl)acetonitrile] and `c1ccc2[nH]nnc2c1` [1,2,3-Benzotriazole] cannot be ordered by CC50 at 24 h: greater than 90 µM for the first, greater than 90 µM for the second.

`CCCCCCCCCCCCCCCC(=O)OCCC1CCN(CCCN2c3ccccc3Sc3ccc(S(=O)(=O)N(C)C)cc32)CC1` [Pipothiazine palmitate] and `CCNC(=O)NCCCOc1cccc(CN2CCCCC2)c1` [Dalcotidine] cannot be ordered by CC50 at 24 h: greater than 50 µM for the first, greater than 50 µM for the second.

`COC(=O)c1ccc(OC)cc1` [Methyl 4-methoxybenzoate] and `CSC1=N[C@@](C)(c2ccccc2)C(=O)N1Nc1ccccc1` [Fenamidone] cannot be ordered by CC50 at 24 h: greater than 90 µM for the first, greater than 90 µM for the second.

`O=C1OC(=O)c2c(Cl)c(Cl)c(Cl)c(Cl)c21` [Tetrachlorophthalic anhydride] and `NS(=O)(=O)c1ccc(Cl)c(S(N)(=O)=O)c1` [Clofenamide] cannot be ordered by CC50 at 24 h: greater than 90 µM for the first, greater than 50 µM for the second.

`CN(C)c1ccc(Cc2ccc(N(C)C)cc2)cc1` [4,4'-Methylenebis(N,N-dimethylaniline)] and `CC(C)(c1ccccc1)c1ccc(Nc2ccc(C(C)(C)c3ccccc3)cc2)cc1` [4-(2-Phenylpropan-2-yl)-N-[4-(2-phenylpropan-2-yl)phenyl]aniline] cannot be ordered by CC50 at 24 h: greater than 90 µM for the first, greater than 90 µM for the second.

`CCCCOCCOCCOC(C)=O` [2-(2-Butoxyethoxy)ethyl acetate] and `CCCCC(CC)CN1CN(CC(CC)CCCC)CC(C)(N)C1` (centres unmarked) [Hexetidine] cannot be ordered by CC50 at 24 h: greater than 90 µM for the first, greater than 20 µM for the second.

`CCOc1ccc(Cc2nccc3cc(OCC)c(OCC)cc23)cc1OCC` [Ethaverine hydrochloride] and `Brc1cc(Br)c(Oc2cc(Br)c(Br)cc2Br)cc1Br` [2,2',4,4',5,5'-Hexabromodiphenyl ether] cannot be ordered by CC50 at 24 h: greater than 20 µM for the first, greater than 50 µM for the second.

`CCC(C)C=O` (centres unmarked) [2-Methylbutanal] and `CC(C)(C)OC(=O)N1CC(N)C1` [Lithium sulfate] cannot be ordered by CC50 at 24 h: greater than 90 µM for the first, greater than 5 µM for the second.

Compared with `O=S(=O)(O)OC[C@H]1O[C@@](COS(=O)(=O)O)(O[C@H]2O[C@H](COS(=O)(=O)O)[C@@H](OS(=O)(=O)O)[C@H](OS(=O)(=O)O)[C@H]2OS(=O)(=O)O)[C@@H](OS(=O)(=O)O)[C@@H]1OS(=O)(=O)O` [Sucrose octasulfate, sodium salt], `S=C(SSSSSSC(=S)N1CCCCC1)N1CCCCC1` [Bis(1-piperidinylthioxomethyl)hexasulfide] is lower in CC50 at 24 h: greater than 50 µM for the first, 0.0827 µM for the second.

`CSc1nc(NC2CC2)nc(NC(C)(C)C)n1` [Cybutryne] and `C=CCOC(=O)C(C)(C)OC(=O)c1cc(-n2c(=O)cc(C(F)(F)F)n(C)c2=O)ccc1Cl` [Butafenacil] cannot be ordered by CC50 at 24 h: greater than 90 µM for the first, greater than 90 µM for the second.

With `N#Cc1cccc(C#N)c1` [1,3-Benzenedicarbonitrile] the CC50 at 24 h was greater than 90 µM.

Same assay, conditions: rat, gh3-tre-luc cells, AC50 (uM) modified / 1000, Tox21_110001=Tox21_110809; viability, 1 nM T3 present, 24 h

For `CC[C@@H](CO)NC(=O)[C@@H]1C=C2c3cccc4[nH]cc(c34)C[C@H]2N(C)C1` [Methergine], the CC50 at 24 h was greater than 50 µM.

Same assay, conditions: rat, gh3-tre-luc cells, AC50 (uM) modified / 1000, Tox21_110001=Tox21_202383; viability, 1 nM T3 present, 24 h

For `CCOP(=S)(OCC)Oc1nc(Cl)c(Cl)cc1Cl` [Chlorpyrifos], the CC50 at 24 h was 53.7 µM.

Same assay, conditions: rat, gh3-tre-luc cells, AC50 (uM) modified / 1000, Tox21_110001=Tox21_300148; viability, 1 nM T3 present, 24 h

With `CCOP(=S)(OCC)Oc1nc(Cl)c(Cl)cc1Cl` [Chlorpyrifos] the CC50 at 24 h was 81.6 µM.
